How the values were obtained:
[1] = target: T1, AHR (Homo sapiens, UniProt P35869); assay: In vitro assay 2: agonism in human cell line (transactivation assay, U87 cells, DRE firefly luciferase reporter); type: cell-based; set-up: host or cells: U87 glioblastoma cells, stably transfected with DRE firefly luciferase and renilla reporter constructs; settings: no kynurenic acid, 20 hours, read-out: Assay 2: AHR-luc Hum Agonism IC50
T1 sequence (P35869 11-848): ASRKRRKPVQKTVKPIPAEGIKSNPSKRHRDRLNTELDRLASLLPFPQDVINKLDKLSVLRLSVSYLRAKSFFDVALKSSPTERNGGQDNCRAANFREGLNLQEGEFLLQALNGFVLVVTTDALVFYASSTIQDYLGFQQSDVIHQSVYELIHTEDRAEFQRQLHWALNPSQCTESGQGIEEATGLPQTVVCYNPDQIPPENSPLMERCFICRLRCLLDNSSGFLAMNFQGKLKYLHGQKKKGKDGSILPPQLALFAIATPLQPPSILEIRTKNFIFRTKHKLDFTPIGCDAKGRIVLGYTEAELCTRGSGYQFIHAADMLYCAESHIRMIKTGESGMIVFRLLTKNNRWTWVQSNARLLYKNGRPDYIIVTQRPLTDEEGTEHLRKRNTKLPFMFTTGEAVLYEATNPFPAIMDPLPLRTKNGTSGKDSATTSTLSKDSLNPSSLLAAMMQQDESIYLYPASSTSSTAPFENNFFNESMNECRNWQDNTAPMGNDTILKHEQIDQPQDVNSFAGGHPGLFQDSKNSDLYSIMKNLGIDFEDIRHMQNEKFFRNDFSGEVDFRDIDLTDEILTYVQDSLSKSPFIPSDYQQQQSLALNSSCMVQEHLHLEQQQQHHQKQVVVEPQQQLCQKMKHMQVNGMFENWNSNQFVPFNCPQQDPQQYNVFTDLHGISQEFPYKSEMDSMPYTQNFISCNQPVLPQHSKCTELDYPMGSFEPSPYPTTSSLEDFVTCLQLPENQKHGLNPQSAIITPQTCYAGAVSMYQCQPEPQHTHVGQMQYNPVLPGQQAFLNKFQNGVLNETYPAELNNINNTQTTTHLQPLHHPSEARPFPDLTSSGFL
Procedure, shortened: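 U87 glioblastoma cells with endogenous AHR, stably carrying DRE-driven firefly luciferase and constitutive renilla reporters. 300 uM kynurenic acid served as positive activation control; data normalized to positive and negative controls.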

[2] = target: T1, AHR; assay: In vitro assay 1: antagonism in human cell line (transactivation assay, U87 cells prestimulated with kynurenic acid, DRE firefly luciferase reporter); type: cell-based; set-up: host or cells: U87 glioblastoma cells, stably transfected with DRE firefly luciferase and renilla reporter constructs; settings: 150 uM kynurenic acid, 20 hours, read-out: Assay 1: AHR-luc Hum Antagonism IC50
Procedure, shortened: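 U87 glioblastoma cells with endogenous AHR, stably carrying a DRE-driven firefly luciferase reporter and a constitutive renilla reporter. Cells prestimulated with the AHR agonist kynurenic acid before compound addition; data normalized to positive and negative controls.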

Compound	IC50 [1] [nM]	IC50 [2] [nM]
COC[C@H](CO)NC(=O)c1cc(-c2ccc(C(F)(F)F)cc2)nn(-c2cccnc2)c1=O [Example 111, N-[(2S)-1-Hydroxy-3-methoxypropan-2-yl]-3-oxo-2-(pyridin-3-yl)-6-[4-(trifluoromethyl)phenyl]-2,3-dihydropyridazine-4-carboxamide]	> 20000	26.5
O=C(N[C@H](CO)C(F)(F)F)c1cc(-c2ccc(Cl)cc2)nn(-c2cnn(C(F)F)c2)c1=O [Example 236, 6-(4-Chlorophenyl)-2-[1-(difluoromethyl)-1H-pyrazol-4-yl]-3-oxo-N-[(2R)-1,1,1-trifluoro-3-hydroxypropan-2-yl]-2,3-dihydropyridazine-4-carboxamide]	> 20000	9.03
C[C@]1(O)CCC[C@H]1NC(=O)c1cc(-c2ccc(OC(F)(F)F)cc2)nn(-c2cccnc2)c1=O (relative stereo) [Example 328, N-[(cis)-2-Hydroxy-2-methylcyclopentyl]-3-oxo-2-(pyridin-3-yl)-6-[4-(trifluoromethoxy)phenyl]-2,3-dihydropyridazine-4-carboxamide]	> 20000	30.6
Cc1cc(-n2nc(-c3ccc(Cl)cc3)cc(C(=O)N[C@@H](C)CO)c2=O)cs1 [Example 242, 6-(4-Chlorophenyl)-N-[(2S)-1-hydroxypropan-2-yl]-2-(5-methyl-3-thienyl)-3-oxo-2,3-dihydropyridazine-4-carboxamide]	> 20000	11.1
CC(C)(O)CNC(=O)c1cc(-c2ccc(Cl)cc2)nn(-c2cnoc2)c1=O [Example 269, 6-(4-Chlorophenyl)-N-(2-hydroxy-2-methylpropyl)-2-(1,2-oxazol-4-yl)-3-oxo-2,3-dihydropyridazine-4-carboxamide]	> 20000	61.7
Cn1cc(-n2nc(-c3ccc(OC(F)(F)F)cc3)cc(C(=O)N[C@@H]3COC[C@@H]3O)c2=O)cn1 (single isomer, unassigned; enantiomer 1) [Example 56, N-[(cis)-4-Hydroxytetrahydrofuran-3-yl]-2-(1-methyl-1H-pyrazol-4-yl)-3-oxo-6-[4-(trifluoromethoxy)phenyl]-2,3-dihydropyridazine-4-carboxamide, Enantiomer 1]	> 20000	25.6
C[C@@H](CO)NC(=O)c1cc(-c2ccc(C(F)(F)F)cc2)nn(-c2cn[nH]c2)c1=O [Example 244, N-[(2S)-1-Hydroxypropan-2-yl]-3-oxo-2-(1H-pyrazol-4-yl)-6-[4-(trifluoromethyl)phenyl]-2,3-dihydropyridazine-4-carboxamide]	> 20000	11.9
Cn1cc(-n2nc(-c3ccc(C(F)F)cc3)cc(C(=O)N[C@@H]3COC[C@@H]3O)c2=O)cn1 (single isomer, unassigned) [Example 320, 6-[4-(Difluoromethyl)phenyl]-N-[(cis)-4-hydroxytetrahydrofuran-3-yl]-2-(1-methyl-1H-pyrazol-4-yl)-3-oxo-2,3-dihydropyridazine-4-carboxamide]	> 20000	44.1
O=C(N[C@H](CO)CF)c1cc(-c2ccc(C(F)(F)F)cc2)nn(-c2cccnc2)c1=O [Example 221, N-[(2R)-1-Fluoro-3-hydroxypropan-2-yl]-3-oxo-2-(pyridin-3-yl)-6-[4-(trifluoromethyl)phenyl]-2,3-dihydropyridazine-4-carboxamide]	> 20000	3.63
Cn1cc(-n2nc(-c3ccc(Cl)cc3)cc(C(=O)N[C@H](CO)C(N)=O)c2=O)cn1 [Example 289, N-[(2R)-1-Amino-3-hydroxy-1-oxopropan-2-yl]-6-(4-chlorophenyl)-2-(1-methyl-1H-pyrazol-4-yl)-3-oxo-2,3-dihydropyridazine-4-carboxamide]	> 20000	875
O=C(N[C@H]1COC[C@@H]1O)c1cc(-c2ccc(OC(F)(F)F)cc2)nn(-c2cccnc2)c1=O (racemic) [Example 160, N-[(trans)-4-Hydroxytetrahydrofuran-3-yl]-3-oxo-2-(pyridin-3-yl)-6-[4-(trifluoromethoxy)phenyl]-2,3-dihydropyridazine-4-carboxamide]	> 20000	79.2
O=C(N[C@H]1CCCC(F)(F)[C@@H]1O)c1cc(-c2ccc(OC(F)(F)F)cc2)nn(-c2cccnc2)c1=O (single isomer, unassigned; enantiomer 1) [Example 141, N-[(trans)-3,3-Difluoro-2-hydroxycyclohexyl]-3-oxo-2-(pyridin-3-yl)-6-[4-(trifluoromethoxy)phenyl]-2,3-dihydropyridazine-4-carboxamide, Enantiomer 1]	> 20000	148
O=C(N[C@H]1COC[C@H]1O)c1cc(-c2ccc(OC(F)(F)F)cc2)nn(-c2cccnc2)c1=O (relative stereo) [Example 157, N-[(cis)-4-Hydroxytetrahydrofuran-3-yl]-3-oxo-2-(pyridin-3-yl)-6-[4-(trifluoromethoxy)phenyl]-2,3-dihydropyridazine-4-carboxamide]	> 20000	39.3
O=C(NC[C@H](O)C(F)(F)F)c1cc(-c2ccc(C(F)(F)F)cc2)nn(-c2cnn(C(F)F)c2)c1=O [Example 223, 2-[1-(Difluoromethyl)-1H-pyrazol-4-yl]-3-oxo-N-[(2S)-3,3,3-trifluoro-2-hydroxypropyl]-6-[4-(trifluoromethyl)phenyl]-2,3-dihydropyridazine-4-carboxamide]	> 20000	4.31
Cn1cc(-n2nc(-c3ccc(C(F)(F)F)cc3)cc(C(=O)NCC(C)(C)O)c2=O)cn1 [Example 67, N-(2-Hydroxy-2-methylpropyl)-2-(1-methyl-1H-pyrazol-4-yl)-3-oxo-6-[4-(trifluoromethyl)phenyl]-2,3-dihydropyridazine-4-carboxamide]	> 20000	4.3
Cn1cc(-n2nc(-c3ccc(C(F)F)cc3)cc(C(=O)N[C@H]3CCC[C@@H]3O)c2=O)cn1 (relative stereo) [Example 52, 6-[4-(Difluoromethyl)phenyl]-N-[(trans)-2-hydroxycyclopentyl]-2-(1-methyl-1H-pyrazol-4-yl)-3-oxo-2,3-dihydropyridazine-4-carboxamide]	> 20000	11.5
Cn1cc(-n2nc(-c3ccc(OC(F)(F)F)cc3)cc(C(=O)N[C@@H]3COC[C@H]3O)c2=O)cn1 (single isomer, unassigned; enantiomer 2) [Example 65, N-[(trans)-4-Hydroxytetrahydrofuran-3-yl]-2-(1-methyl-1H-pyrazol-4-yl)-3-oxo-6-[4-(trifluoromethoxy)phenyl]-2,3-dihydropyridazine-4-carboxamide, Enantiomer 2]	> 20000	25.5
O=C(N[C@H]1CCCC(F)(F)[C@@H]1O)c1cc(-c2ccc(Cl)cc2)nn(-c2cccnc2)c1=O (single isomer, unassigned; enantiomer 2) [Example 145, 6-(4-Chlorophenyl)-N-[(trans)-3,3-difluoro-2-hydroxycyclohexyl]-3-oxo-2-(pyridin-3-yl)-2,3-dihydropyridazine-4-carboxamide, Enantiomer 2]	> 20000	6.9
O=C(N[C@H](CO)C(F)(F)F)c1cc(-c2ccc(Cl)cc2)nn(-c2cncnc2)c1=O [Example 271, 6-(4-Chlorophenyl)-3-oxo-2-(pyrimidin-5-yl)-N-[(2R)-1,1,1-trifluoro-3-hydroxypropan-2-yl]-2,3-dihydropyridazine-4-carboxamide]	> 20000	72
C[C@@H](NC(=O)c1cc(-c2ccc(C(F)(F)F)nc2)nn(-c2cncc(F)c2)c1=O)C(C)(C)O [Example 342, 2-(5-Fluoropyridin-3-yl)-N-[(2R)-3-hydroxy-3-methylbutan-2-yl]-3-oxo-6-[6-(trifluoromethyl)pyridin-3-yl]-2,3-dihydropyridazine-4-carboxamide]	> 20000	132
N#C[C@@H](CO)NC(=O)c1cc(-c2ccc(Cl)cc2)nn(-c2cccnc2)c1=O [Example 254, 6-(4-Chlorophenyl)-N-[(1S)-1-cyano-2-hydroxyethyl]-3-oxo-2-(pyridin-3-yl)-2,3-dihydropyridazine-4-carboxamide]	> 20000	22.9

From patent US12522594B2, “2-heteroaryl-3-oxo-2,3-dihydropyridazine-4-carboxamides for the treatment of cancer” (Deutsches Krebsforschungszentrum, priority 2017, dated 2026)
